Data published in patent US11634396B2 (priority 2021, dated 2023).
Where two headings read alike, the source gives them in different places.

Key:
[1] = molecular target: human mOR (Homo sapiens (Human), UniProt P35372); experiment: cell-based
[2] = molecular target: kOR (OPRK1) (Homo sapiens (Human), UniProt P41145); experiment: KOR β-Arrestin antagonist assay (Tango OPRK1-bla U2OS cells); type: cell-based
From the text: KOR β-Arrestin Agonist and Antagonist assays were preformed using the Tango™ OPRK1-bla U2OS cells from Invitrogen and purchased from ThermoFisher, catalog number K1576.

[3] = molecular target: human dOR (Homo sapiens (Human), UniProt P41143); experiment: cell-based; conditions: dOR cAMP Agonist Assay EC50, CHO Tag-lite human dOR stable cell line; forskolin
[4] = CHO Tag-lite human mOR stable cell line, forskolin 4 μM and DAMGO at EC90, read-out: mOR cAMP Antagonist Assay IC50

Chain of kOR (OPRK1) (P41145 whole entry): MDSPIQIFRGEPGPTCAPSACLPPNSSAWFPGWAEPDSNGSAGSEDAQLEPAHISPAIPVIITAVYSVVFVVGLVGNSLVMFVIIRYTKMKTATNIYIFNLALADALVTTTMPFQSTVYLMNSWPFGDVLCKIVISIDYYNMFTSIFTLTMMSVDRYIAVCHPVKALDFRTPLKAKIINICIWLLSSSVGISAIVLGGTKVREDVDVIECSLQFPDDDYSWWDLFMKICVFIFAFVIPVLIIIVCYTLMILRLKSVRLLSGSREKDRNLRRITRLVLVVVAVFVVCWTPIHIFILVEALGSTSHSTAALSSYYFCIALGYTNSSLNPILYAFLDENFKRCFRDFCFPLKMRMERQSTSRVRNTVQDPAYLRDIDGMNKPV
Chain of human mOR (P35372 whole entry): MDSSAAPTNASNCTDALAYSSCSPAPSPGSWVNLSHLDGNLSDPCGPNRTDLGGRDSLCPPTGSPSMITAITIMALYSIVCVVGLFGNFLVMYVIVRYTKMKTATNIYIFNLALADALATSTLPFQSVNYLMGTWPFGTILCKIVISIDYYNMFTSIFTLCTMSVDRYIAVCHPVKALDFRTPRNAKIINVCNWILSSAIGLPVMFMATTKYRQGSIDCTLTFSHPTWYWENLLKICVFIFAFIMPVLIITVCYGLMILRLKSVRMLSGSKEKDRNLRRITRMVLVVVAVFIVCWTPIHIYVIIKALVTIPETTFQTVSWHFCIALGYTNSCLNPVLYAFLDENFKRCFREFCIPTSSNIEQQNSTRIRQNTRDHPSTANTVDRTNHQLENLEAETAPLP
Chain of human dOR (P41143 whole entry): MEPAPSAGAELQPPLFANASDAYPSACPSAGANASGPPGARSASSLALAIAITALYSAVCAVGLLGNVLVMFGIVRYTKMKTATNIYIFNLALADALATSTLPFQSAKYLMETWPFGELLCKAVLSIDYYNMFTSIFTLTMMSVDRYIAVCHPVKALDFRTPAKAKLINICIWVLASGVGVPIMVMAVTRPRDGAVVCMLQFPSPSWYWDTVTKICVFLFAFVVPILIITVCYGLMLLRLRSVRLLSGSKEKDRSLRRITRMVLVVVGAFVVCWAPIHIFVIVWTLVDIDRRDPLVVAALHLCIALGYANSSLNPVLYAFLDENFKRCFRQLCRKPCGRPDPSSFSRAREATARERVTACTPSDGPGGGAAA

| Compound | IC50 [1, 4] [nM] | IC50 [2] [nM] | IC50 [1] [nM] | EC50 [3] [nM] |
| --- | --- | --- | --- | --- |
| CN(C)[C@H](CNC(=O)CC(c1ncc(Cl)cn1)C1(C(F)(F)F)CC1)Cc1ccc(C(N)=O)c(F)c1Cl (stereo partly drawn) [Compound 22, 3-chloro-4-[(2S)-3-[3-(5-chloropyrimidin-2-yl)-3-[1-(trifluoromethyl)cyclopropyl]propanamido]-2-(dimethylamino)propyl]-2-fluorobenzamide] | < 300 | < 300 | – | – |
| CN(C)[C@H](CNC(=O)C[C@H](c1cccnc1)C1(C(F)(F)F)CC1)Cc1ccc(C(N)=O)cc1Cl [Compound 28, 3-chloro-4-((S)-2-(dimethylamino)-3-((R)-3-(pyridin-3-yl)-3-(1-(trifluoromethyl)cyclopropyl)propanamido)propyl)benzamide] | – | < 300 | < 300 | – |
| CN(C)[C@H](CNC(=O)C[C@H](c1cccnc1)C1(C(F)(F)F)CC1)Cc1ccc(O)cc1C(F)(F)F [Compound 255, (R)-N-((S)-2-(dimethylamino)-3-(4-hydroxy-2-(trifluoromethyl)phenyl)propyl)-3-(pyridin-3-yl)-3-(1-(trifluoromethyl)cyclopropyl) propanamide] | – | > 3000 | < 300 | – |
| COc1ccc(C(CC(=O)NC[C@H](Cc2ccc(C(N)=O)cc2Cl)N(C)C)C2(C(F)(F)F)CC2)cn1 (stereo partly drawn) [Compound 35, 3-chloro-4-[(2S)-2-(dimethylamino)-3-[3-(6-methoxypyridin-3-yl)-3-[1-(trifluoromethyl)cyclopropyl]propanamido]propyl]benzamide] | – | < 300 | < 300 | – |
| Cc1ncc(C(CC(=O)NC[C@H](Cc2ccc(C(N)=O)cc2Cl)N(C)C)C2(C(F)(F)F)CC2)cn1 (stereo partly drawn) [Compound 34, 3-chloro-4-[(2S)-2-(dimethylamino)-3-[3-(2-methylpyrimidin-5-yl)-3-[1-(trifluoromethyl)cyclopropyl]propanamido]propyl]benzamide] | – | < 300 | < 300 | – |
| Cc1ccc([C@@H](CC(=O)NC[C@H](Cc2ccc(C(N)=O)c(F)c2)N(C)C)C2(C(F)(F)F)CC2)cn1 [Compound 75, 4-[(2S)-2-(dimethylamino)-3-[(3R)-3-(6-methylpyridin-3-yl)-3-[1-(trifluoromethyl)cyclopropyl]propanamido]propyl]-2-fluorobenzamide] | – | < 300 | < 300 | – |
| Cc1cc(C(N)=O)cc(C)c1C[C@@H](CNC(=O)C1CC1c1ncccn1)N(C)C (stereo partly drawn) [Compound 6, 4-((2S)-2-(dimethylamino)-3-(2-(pyrimidin-2-yl)cyclopropane-1-carboxamido)propyl)-3,5-dimethylbenzamide] | 300 to 3000 | 300 to 3000 | – | – |
| CN(C)[C@H](CNC(=O)CC(c1cccnc1)C1(C(F)(F)F)CC1)Cc1ccc(C(N)=O)c(F)c1 (stereo partly drawn) [Compound 74, 4-[(2S)-2-(dimethylamino)-3-[3-(pyridin-3-yl)-3-[1-(trifluoromethyl)cyclopropyl]propanamido]propyl]-2-fluorobenzamide] | – | < 300 | > 3000 | – |
| CNC(=O)c1ccc(C[C@@H](CNC(=O)C[C@@H](C)c2ccc(Cl)cc2)N(C)C)cc1F [Compound 155, 4-((S)-3-((R)-3-(4-chlorophenyl)butanamido)-2-(dimethylamino)propyl)-2-fluoro-N-methylbenzamide] | < 300 | – | – | < 300 |
| CN(C)[C@H](CNC(=O)C[C@@H](c1ccccc1)C1CC1)Cc1ccc2c(c1)CC(=O)N2 [Compound 186, (R)-3-cyclopropyl-N-((S)-2-(dimethylamino)-3-(2-oxoindolin-5-yl)propyl)-3-phenylpropanamide] | – | – | < 300 | 300 to 3000 |
| CC(C)[C@@H](CC(=O)NC[C@H](Cc1ccc(C(N)=O)cc1Cl)N(C)C)c1ccccc1 [Compound 40, 3-chloro-4-((S)-2-(dimethylamino)-3-((R)-4-methyl-3-phenylpentanamido)propyl)benzamide] | – | – | > 3000 | < 300 |
| CNC(=O)c1ccc(C[C@@H](CNC(=O)C[C@H](c2ccccc2)C(C)C)N(C)C)cc1Cl [Compound 148, 2-chloro-4-((S)-2-(dimethylamino)-3-((S)-4-methyl-3-phenylpentanamido)propyl)-N-methylbenzamide] | – | – | 300 to 3000 | 300 to 3000 |
| CNC(=O)c1ccc(C[C@@H](CNC(=O)C[C@H](C)c2ccccn2)N(C)C)cc1F [Compound 163, 4-((S)-2-(dimethylamino)-3-((S)-3-(pyridin-2-yl)butanamido)propyl)-2-fluoro-N-methylbenzamide] | – | – | < 300 | > 3000 |
| CN1Cc2cc(O)ccc2C[C@H]1CNC(=O)C[C@H](c1ccccc1)C(C)(C)C [Compound 323, (S)-N-(((S)-7-hydroxy-2-methyl-1,2,3,4-tetrahydroisoquinolin-3-yl)methyl)-4,4-dimethyl-3-phenylpentanamide] | – | – | < 300 | < 300 |
| CC(C)[C@H](CC(=O)NC[C@H](Cc1ccc(C(N)=O)cc1)N(C)C)c1ccccc1 [Compound 94, 4-[(2S)-2-(dimethylamino)-3-[(3S)-4-methyl-3-phenylpentanamido]propyl]benzamide] | – | – | < 300 | < 300 |
| CNC(=O)c1ccc(C[C@@H](CNC(=O)C[C@H](c2ccccc2)C(C)(C)C)N(C)C)cc1Cl [Compound 150, 2-chloro-4-((S)-3-((S)-4,4-dimethyl-3-phenylpentanamido)-2-(dimethylamino)propyl)-N-methylbenzamide] | – | – | < 300 | > 3000 |
| CNC(=O)c1ccc2c(c1)CN(C)[C@H](CNC(=O)C[C@H](c1ccccc1)C(C)(C)C)C2 [Compound 168, (S)-3-(((S)-4,4-dimethyl-3-phenylpentanamido)methyl)-N,2-dimethyl-1,2,3,4-tetrahydroisoquinoline-7-carboxamide] | – | – | 300 to 3000 | > 3000 |
| Cc1cc(C(N)=O)cc(C)c1C[C@@H](CNC(=O)C[C@H](c1ccccc1)C(C)(C)C)N(C)C [Compound 13, 4-[(2S)-3-[(3S)-4,4-dimethyl-3-phenylpentanamido]-2-(dimethylamino)propyl]-3,5-dimethylbenzamide] | – | – | < 300 | > 3000 |
| CCCC[C@@H](CC(=O)NC[C@H](Cc1ccc2[nH]c(=O)oc2c1)N(C)C)c1ccccc1 [Compound 174] | – | – | < 300 | < 300 |
| CNC(=O)c1ccc(C[C@@H](CNC(=O)C[C@@H](c2ccc(Cl)cn2)C2(C(F)(F)F)CC2)N(C)C)c(C)c1 [Compound 137, 4-((S)-3-((R)-3-(5-chloropyridin-2-yl)-3-(1-(trifluoromethyl)cyclopropyl)propanamido)-2-(dimethylamino)propyl)-N,3-dimethylbenzamide] | – | < 300 | – | – |
| CN(C)[C@H](CNC(=O)C[C@H](c1ccccc1)C(C)(C)C)Cc1ccc(C(=O)NCC(F)(F)F)c(F)c1 [Compound 101, 4-((S)-3-((S)-4,4-dimethyl-3-phenylpentanamido)-2-(dimethylamino)propyl)-2-fluoro-N-(2,2,2-trifluoroethyl)benzamide] | < 300 | – | – | 300 to 3000 |
| CC(=O)Oc1ccc(C[C@@H](CNC(=O)C[C@H](C)c2ccccc2)N(C)C)cc1Cl [Compound 275, 2-chloro-4-((S)-2-(dimethylamino)-3-((S)-3-phenylbutanamido)propyl)phenyl acetate] | – | – | < 300 | < 300 |
| Cc1ccc([C@@H](C)CC(=O)NC[C@H](Cc2ccc3[nH]ncc3c2)N(C)C)cc1 [Compound 217, (S)-N-((S)-2-(dimethylamino)-3-(1H-indazol-5-yl)propyl)-3-(p-tolyl)butanamide] | < 300 | – | – | 300 to 3000 |
| C[C@@H](CC(=O)NC[C@H](Cc1ccc2c(c1)OCC(=O)N2)N(C)C)c1ccccc1 [Compound 187, (S)-N-((S)-2-(dimethylamino)-3-(3-oxo-3,4-dihydro-2H-benzo[b][1,4]oxazin-7-yl)propyl)-3-phenylbutanamide] | – | – | < 300 | < 300 |
| CNC(=O)c1ccc(C[C@@H](CNC(=O)C[C@H](C)c2ccc(Cl)cc2)N(C)C)cc1F [Compound 156, 4-((S)-3-((S)-3-(4-chlorophenyl)butanamido)-2-(dimethylamino)propyl)-2-fluoro-N-methylbenzamide] | < 300 | – | – | 300 to 3000 |
| CN(C)[C@H](CNC(=O)C[C@@H](c1ccccc1)C(C)(C)C)Cc1ccc(C(N)=O)cc1 [Compound 93, 4-[(2S)-3-[(3R)-4,4-dimethyl-3-phenylpentanamido]-2-(dimethylamino)propyl]benzamide] | – | – | < 300 | < 300 |
| CC(C)[C@@H](CC(=O)NC[C@H](Cc1ccc2c(c1)CC(=O)N2)N(C)C)c1ccccc1 [Compound 182, (R)-N-((S)-2-(dimethylamino)-3-(2-oxoindolin-5-yl)propyl)-4-methyl-3-phenylpentanamide] | > 3000 | – | – | > 3000 |
| CNC(=O)c1cc(C)c(C[C@@H](CNC(=O)C[C@@H](c2ccccc2)C(C)(C)C)N(C)C)cc1F [Compound 146, 4-((S)-3-((R)-4,4-dimethyl-3-phenylpentanamido)-2-(dimethylamino)propyl)-2-fluoro-N,5-dimethylbenzamide] | – | – | < 300 | > 3000 |
| CNC(=O)c1ccc(C[C@@H](CNC(=O)C[C@H](c2ccc(Cl)cn2)C2(C(F)(F)F)CC2)N(C)C)c(C)c1 [Compound 138, 4-((S)-3-((S)-3-(5-chloropyridin-2-yl)-3-(1-(trifluoromethyl)cyclopropyl)propanamido)-2-(dimethylamino)propyl)-N,3-dimethylbenzamide] | – | < 300 | – | – |
| CN(C)[C@H](CNC(=O)C[C@H](c1ccccc1)C1CC1)Cc1ccc2[nH]c(=O)oc2c1 [Compound 177, (S)-3-cyclopropyl-N-((S)-2-(dimethylamino)-3-(2-oxo-2,3-dihydrobenzo[d]oxazol-6-yl)propyl)-3-phenylpropanamide] | – | – | < 300 | 300 to 3000 |
